In ChEMBL document CHEMBL3352694, “Structure-activity relationships (SAR) and structure-kinetic relationships (SKR) of bicyclic heteroaromatic acetic acids as potent CRTh2 antagonists I” (Bioorg Med Chem Lett, 2014):

Test system: not listed separately
Test: Dissociation constant, acidic pKa of the compound by potentiometric assay
Type: physicochemical
Conditions: not given

| pKa | Compound |
| --- | --- |
| 2.4 | CCN(Cc1cc(C(F)(F)F)ccc1-c1cn(CC(=O)O)c2ccncc12)C(=O)C1CC1 |
| 3.7 | CCN(Cc1cc(C(F)(F)F)ccc1-c1cc(CC(=O)O)n2cccnc12)C(=O)C1CC1 |
| 2.5 | CCN(Cc1cc(C(F)(F)F)ccc1-c1cn(CC(=O)O)c2cccnc12)C(=O)C1CC1 |
| 3 | CCN(Cc1cc(C(F)(F)F)ccc1-c1nc(CC(=O)O)c2ccccn12)C(=O)C1CC1 |

Test system: not listed separately
Test: Thermodynamic solubility in pH 7.4 buffer after 24 hrs at 37 degC
Type: physicochemical
Conditions: read-out: Therm_solubility

| solubility thermodynamic at 24 h [µg/mL] | Compound |
| --- | --- |
| > 1000 | CCN(Cc1cc(C(F)(F)F)ccc1-c1cc(CC(=O)O)n2cccnc12)C(=O)C1CC1 |
| > 1000 | CCN(Cc1cc(C(F)(F)F)ccc1-c1cn(CC(=O)O)c2cccnc12)C(=O)C1CC1 |

Test system: not listed separately
Test: Thermodynamic solubility in pH 1.0 buffer after 24 hrs at 37 degC
Type: physicochemical
Conditions: read-out: Therm_solubility

| solubility thermodynamic at 24 h [µg/mL] | Compound |
| --- | --- |
| > 1000 | CCN(Cc1cc(C(F)(F)F)ccc1-c1cc(CC(=O)O)n2cccnc12)C(=O)C1CC1 |
| > 1000 | CCN(Cc1cc(C(F)(F)F)ccc1-c1cn(CC(=O)O)c2cccnc12)C(=O)C1CC1 |
| > 1000 | CCN(Cc1cc(C(F)(F)F)ccc1-c1nc(CC(=O)O)c2ccccn12)C(=O)C1CC1 |

Molecular target: T1, Prostaglandin D2 receptor 2 (Homo sapiens) (UniProt Q9Y5Y4)
T1 sequence (whole entry): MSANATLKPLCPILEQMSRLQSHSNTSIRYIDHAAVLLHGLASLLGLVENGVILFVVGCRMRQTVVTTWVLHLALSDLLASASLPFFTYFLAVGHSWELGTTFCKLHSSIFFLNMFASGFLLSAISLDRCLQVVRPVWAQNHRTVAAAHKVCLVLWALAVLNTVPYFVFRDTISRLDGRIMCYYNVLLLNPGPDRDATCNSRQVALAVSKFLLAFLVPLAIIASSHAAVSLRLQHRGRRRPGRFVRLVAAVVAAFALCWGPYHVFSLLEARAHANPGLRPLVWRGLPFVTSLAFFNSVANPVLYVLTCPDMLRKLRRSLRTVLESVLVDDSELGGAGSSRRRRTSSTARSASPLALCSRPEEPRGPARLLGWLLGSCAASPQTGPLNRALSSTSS
Test: not given
Conditions: CHO-K1

| T1/2 [min] | Compound |
| --- | --- |
| 66 | CCN(Cc1cc(C(F)(F)F)ccc1-c1cn(CC(=O)O)c2ccncc12)C(=O)C1CC1 |
| 42 | CCN(Cc1cc(C(F)(F)F)ccc1-c1nc(CC(=O)O)c2ccccn12)C(=O)C1CC1 |

Molecular target: not listed separately
Test: Antagonist activity at CRTh2 receptor in human eosinophil assessed as inhibition of PGD2-induced cell shape change
Conditions: not given

| IC50 [nM] | Compound |
| --- | --- |
| 1.4 | CCN(Cc1cc(C(F)(F)F)ccc1-c1cc(CC(=O)O)n2cccnc12)C(=O)C1CC1 |

Molecular target: T2, Prostaglandin D2 receptor 2 (Homo sapiens, UniProt Q9Y5Y4)
T2 sequence (Q9Y5Y4 whole entry): T1 sequence (whole entry)
Test: Antagonist activity at CRTh2 receptor (unknown origin) overexpressed in CHOK1 cell membranes assessed as inhibition of [35S]-GTPgammaS binding at 1 to 5 uM preincubated for 1 hr followed by 50 nM PGD2 and 0.1 nM [35S]-GTPgammaS addition measured after 2 hrs by liquid scintillation counting analysis relative to control
Type: functional, CHO-K1
Conditions: not given

| IC50 [nM] | Compound |
| --- | --- |
| 43 | CCN(Cc1cc(C(F)(F)F)ccc1-c1cn(CC(=O)O)c2ccncc12)C(=O)C1CC1 |
| 82 | CCN(Cc1cc(C(F)(F)F)ccc1-c1nc(CC(=O)O)c2ccccn12)C(=O)C1CC1 |

Test system: not listed separately
Test: Dissociation constant, basic pKa of the compound by potentiometric assay
Type: physicochemical
Conditions: not given

| pKa | Compound |
| --- | --- |
| 7.8 | CCN(Cc1cc(C(F)(F)F)ccc1-c1cn(CC(=O)O)c2ccncc12)C(=O)C1CC1 |
| 1.7 | CCN(Cc1cc(C(F)(F)F)ccc1-c1cc(CC(=O)O)n2cccnc12)C(=O)C1CC1 |
| 5.6 | CCN(Cc1cc(C(F)(F)F)ccc1-c1cn(CC(=O)O)c2cccnc12)C(=O)C1CC1 |
| 4.8 | CCN(Cc1cc(C(F)(F)F)ccc1-c1nc(CC(=O)O)c2ccccn12)C(=O)C1CC1 |
